Measured values published in US20260184663A1, “INDENE COMPOUNDS, PHARMACEUTICAL COMPOSITIONS THEREOF, AND THEIR THERAPEUTIC APPLICATIONS” (NucMito Pharmaceuticals co. Ltd., priority 2022, published 2026).
Like-named read-outs stand apart in the source and are kept apart here.

What was measured:
Type in all cases: cell-based
[1] = test system: alpha-smooth muscle actin (α-SMA); assay: Inhibition of TGF-β induced expression of alpha-smooth muscle actin (α-SMA) in CFSC cells (western blot); conditions: compound at 10 μM, TGF-β (10 ng/mL), 24 hours, band intensity vs TGF-β only
How it was run: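 Values are percent reduction of α-SMA band intensity relative to cells given TGF-β alone, quantified by Western blot densitometry with β-actin probed. Compound was applied at 10 μM alongside 10 ng/mL TGF-β to serum-free CFSC cultures for 24 h at 37 °C.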

[2] = test system: MDA-MB-231 (breast cancer); assay: Antiproliferative activity (CCK-8 cell viability), MDA-MB-231; conditions: Homo sapiens, 72 h, read-out: Antiproliferative activity in cancerous cells, MDA-MB-231 (inhibition of cell growth); for inhibition at 3.3 µM: Compound concentration: 3.3 μM; for inhibition at 10 µM: Compound concentration: 10 μM
How it was run: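 MDA-MB-231 breast cancer cells, grown in DMEM with 10% FBS, were plated in 96-well plates at 2,000-5,000 cells/well. Once attached, they were exposed to compound and incubated at 37° C. for 72 h. Viability was then measured with CCK-8 (10 μL per well, 4 h at 37° C.) by absorbance at 450 nm, relative to DMSO vehicle wells.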

[3] = test system: HepG2 (liver cancer); assay: Antiproliferative activity (CCK-8 cell viability), HepG2; conditions: Homo sapiens, 72 h; for inhibition at 3.3 µM: Compound concentration: 3.3 μM; for inhibition at 10 µM: Compound concentration: 10 μM; for inhibition at 30 µM: Compound concentration: 30 μM
How it was run: (§1)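 Cells grown in DMEM (HepG2, SW480), MEM (HeLa) or F-12K (A549), each with 10% FBS, then exposed to compound at 3.3, 10 or 30 μM for 72 h at 37 °C. CCK-8 absorbance at 450 nm; viability expressed as percent of DMSO-treated cells, graded as growth inhibition bands.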

[4] = test system: SW480 (colon cancer); assay: Antiproliferative activity (CCK-8 cell viability), SW480; conditions: Homo sapiens, 72 h, read-out: Antiproliferative activity in cancerous cells, SW480 (inhibition of cell growth); for inhibition at 3.3 µM: Compound concentration: 3.3 μM; for inhibition at 10 µM: Compound concentration: 10 μM
How it was run: as §1

[5] = test system: B16F10 (malignant melanoma); assay: Antiproliferative activity (CCK-8 cell viability), B16F10; conditions: Mus musculus, 72 h, read-out: Antiproliferative activity in cancerous cells, B16F10 (inhibition of cell growth); for inhibition at 3.3 µM: B16-F10, Compound concentration: 3.3 μM; for inhibition at 10 µM: B16-F10, Compound concentration: 10 μM
How it was run: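 B16F10 melanoma cells grown in DMEM with 10% FBS were plated in 96-well plates at 2,000-5,000 cells/well. After attachment they were exposed to compound in medium for 72 h at 37° C. CCK-8 solution (10 μL) was then added, and after 4 h at 37° C absorbance was read at 450 nm.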

[6] = test system: A431 (epidermoid carcinoma); assay: Antiproliferative activity (CCK-8 cell viability), A431; conditions: Homo sapiens, 72 h, read-out: Antiproliferative activity in cancerous cells, A431 (inhibition of cell growth); for inhibition at 3.3 µM: A-431, Compound concentration: 3.3 μM; for inhibition at 10 µM: A-431, Compound concentration: 10 μM
How it was run: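 A431 epidermoid carcinoma cells grown in DMEM with 10% FBS were plated at 2,000-5,000 cells/well in 96-well plates. After attachment they were exposed to compound at 3.3 μM, 10 μM, or 30 μM for 72 h at 37° C. Viability was then assessed by CCK-8 against DMSO vehicle-treated wells.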

[7] = test system: A549 (lung adenocarcinoma); assay: Antiproliferative activity (CCK-8 cell viability), A549; conditions: Homo sapiens, 72 h, read-out: Antiproliferative activity in cancerous cells, A549 (inhibition of cell growth); for inhibition at 3.3 µM: Compound concentration: 3.3 μM; for inhibition at 10 µM: Compound concentration: 10 μM
How it was run: as §1

[8] = test system: HeLa (cervical cancer); assay: Antiproliferative activity (CCK-8 cell viability), HeLa; conditions: Homo sapiens, 72 h, read-out: Antiproliferative activity in cancerous cells, HELA (inhibition of cell growth); for inhibition at 3.3 µM: Compound concentration: 3.3 μM; for inhibition at 10 µM: Compound concentration: 10 μM
How it was run: as §1

[9] = read-out: Antiproliferative activity in cancerous cells, HepG2 (inhibition of cell growth)

| Compound | inhibition at 10 µM [1] | inhibition at 3.3 µM [2] | inhibition at 10 µM [2] | inhibition at 3.3 µM [3, 9] | inhibition at 10 µM [3, 9] | inhibition at 3.3 µM [4] | inhibition at 10 µM [4] | inhibition at 3.3 µM [5] | inhibition at 10 µM [5] | inhibition at 3.3 µM [6] | inhibition at 10 µM [6] | inhibition at 3.3 µM [7] | inhibition at 10 µM [7] | inhibition at 3.3 µM [8] | inhibition at 10 µM [8] | other results |
| --- | --- | --- | --- | --- | --- | --- | --- | --- | --- | --- | --- | --- | --- | --- | --- | --- |
| COc1ccc2c(c1)C(CC(=O)O)=C(C)/C2=C/c1cccc(COc2ccc(F)cc2)c1 [B24, (Z)-2-(1-(3-((4-Fluorophenoxy)methyl)benzylidene)-5-methoxy-2-methyl-1H-inden-3-yl)acetic acid] | > 80% | 30 to 50% | ≥ 50% | < 30% | < 30% | < 30% | < 30% | < 30% | ≥ 50% | < 30% | < 30% | 30 to 50% | ≥ 50% | < 30% | < 30% | inhibition at 30 µM ([3]; read-out: Antiproliferative activity in cancerous cells, HepG2): 30 to 50% |
| COc1ccc(/C=C2/C(C)=C(CC(=O)O)c3cc(F)ccc32)c(OCc2ccccc2)c1 [B29, (Z)-2-(1-(2-(Benzyloxy)-4-methoxybenzylidene)-5-fluoro-2-methyl-1H-inden-3-yl)acetic acid] | > 80% | 30 to 50% | 30 to 50% | < 30% | ≥ 50% | < 30% | < 30% | < 30% | ≥ 50% | < 30% | ≥ 50% | < 30% | < 30% | < 30% | ≥ 50% |  |
| COc1ccc2c(c1)/C(=C\c1cccc(COc3ccc(F)cc3)c1)C(C)=C2CC(=O)O [B22, (Z)-2-(1-(3-((4-Fluorophenoxy)methyl)benzylidene)-6-methoxy-2-methyl-1H-inden-3-yl)acetic acid] | > 80% | 30 to 50% | 30 to 50% | < 30% | < 30% | < 30% | < 30% | < 30% | < 30% | < 30% | < 30% | < 30% | < 30% | < 30% | 30 to 50% |  |
| CCCC1=C(CC(=O)O)c2cc(F)ccc2/C1=C\c1ccc(Oc2ccc(F)cc2)cc1 [C8, (Z)-2-(5-Fluoro-1-(4-(4-fluorophenoxy)benzylidene)-2-propyl-1H-inden-3-yl)-acetic acid] | > 80% | ≥ 50% | ≥ 50% | ≥ 50% | ≥ 50% | < 30% | ≥ 50% | 30 to 50% | ≥ 50% | < 30% | ≥ 50% | ≥ 50% | ≥ 50% | ≥ 50% | ≥ 50% |  |
| COc1ccc2c(c1)/C(=C\c1ccc(Oc3ccc(F)cc3)cc1)C(Cc1ccccc1)=C2CC(=O)O [C27, (Z)-2-(2-Benzyl-1-(4-(4-fluorophenoxy)benzylidene)-6-methoxy-1H-inden-3-yl)-acetic acid] | > 80% | ≥ 50% | ≥ 50% | ≥ 50% | ≥ 50% | < 30% | ≥ 50% | 30 to 50% | ≥ 50% | < 30% | ≥ 50% | ≥ 50% | ≥ 50% | ≥ 50% | ≥ 50% |  |
| COc1ccc2c(c1)/C(=C\c1ccc(Oc3ccc(F)cc3)cc1)C(C)=C2CC(=O)O [C1, (Z)-2-(1-(4-(4-Fluorophenoxy)benzylidene)-6-methoxy-2-methyl-1H-inden-3-yl)-acetic acid] | > 80% | ≥ 50% | ≥ 50% | < 30% | < 30% | ≥ 50% | ≥ 50% | 30 to 50% | ≥ 50% | 30 to 50% | ≥ 50% | < 30% | < 30% | ≥ 50% | ≥ 50% |  |
| CCC1=C(CC(=O)O)c2cc(F)ccc2/C1=C\c1cccc(COc2ccccc2)c1 [A5, (Z)-2-(2-Ethyl-5-fluoro-1-(3-(phenoxymethyl)benzylidene)-1H-inden-3-yl)acetic acid] | > 80% | ≥ 50% | ≥ 50% | 30 to 50% | ≥ 50% | < 30% | ≥ 50% | 30 to 50% | ≥ 50% | < 30% | ≥ 50% | 30 to 50% | ≥ 50% | 30 to 50% | ≥ 50% |  |
| CC1=C(CC(=O)O)c2cc(F)ccc2/C1=C/c1cccc(Oc2cccc(C(F)(F)F)c2)c1 [E16, (E)-2-(5-Fluoro-2-methyl-1-(3-(3-(trifluoromethyl)phenoxy)benzylidene)-1H-inden-3-yl)acetic acid] | > 80% | 30 to 50% | 30 to 50% | < 30% | 30 to 50% | < 30% | < 30% | < 30% | < 30% | < 30% | < 30% | 30 to 50% | 30 to 50% | ≥ 50% | ≥ 50% | inhibition at 30 µM ([2]; Compound concentration: 30 μM): ≥ 50%; inhibition at 30 µM [3, 9]: ≥ 50%; inhibition at 30 µM ([4]; Compound concentration: 30 μM): ≥ 50%; inhibition at 30 µM ([5]; B16-F10, Compound concentration: 30 μM): ≥ 50%; inhibition at 30 µM ([6]; A-431, Compound concentration: 30 μM): ≥ 50%; inhibition at 30 µM ([7]; Compound concentration: 30 μM): ≥ 50%; inhibition at 30 µM ([8]; Compound concentration: 30 μM): ≥ 50% |
